{"source": "patent US20090004232A1", "about": "“BIOACTIVE PHARMACEUTICAL/COSMETIC COMPOSITIONS AND MIXED SOLUBILIZATION PROCESS FOR THE FORMULATION THEREOF” (priority 2005, published 2009)", "test": "Physical stability of the emulsions on storage (phase shift, recrystallization / crystal growth of the active principle)", "type": "physicochemical", "protocol": "According to the invention, another physical stability parameter observed is, in particular, the absence of recrystallization phenomenon at ambient temperature and at 4° C., over three months.\nIn the present text, the expression “active principle in dissolved form” means a molecular state dispersion in a liquid, no crystallization of the active principle being visible to the naked eye nor even using a crossed polarization optical microscope, or using other more accurate techniques such as electron microscopy. Preferably, the bioactive principle particles have a size below 1 nm.\nPreferably, according to the invention, the expression “active principle in dissolved form” means a molecular state dispersion in a liquid for which no crystallization of the active principle is visible to the naked eye or using an optical microscope.", "data": [{"smiles": "CC/C(=C\\C=C\\C(O)(CC)CC)c1cccc(OCc2ccc(CO)c(CO)c2)c1", "note": "[(4E,6E)-7-[3-(3,4-bishydroxymethylbenzyloxy)phenyl]-3-ethylnona-4,6-dien-3-ol]", "values": [{"measurement": "physical stability of the emulsion over time", "setting": "active principle solubilized in a single phase (hydrophilic phase or lipophilic phase)", "result": "have not made it possible to obtain an emulsion that was physically stable over time"}, {"measurement": "crystal growth phenomena of the active principle", "setting": "single phase solubilization, storage at 4° C.", "result": "appeared from the first month"}]}]}
